The values below come from BindingDB's records for PubMed 11303063 (Creighton University, 2001).

This assay addresses Muscarinic acetylcholine receptor M3 (Rattus norvegicus, UniProt P08483).

Molecules are shown by their SMILES. Values joined by “and” are separate entries in the source; they are usually repeats but may differ in a detail not shown here. Equal values may be shown once.

Chain of Muscarinic acetylcholine receptor M3 (P08483 whole entry): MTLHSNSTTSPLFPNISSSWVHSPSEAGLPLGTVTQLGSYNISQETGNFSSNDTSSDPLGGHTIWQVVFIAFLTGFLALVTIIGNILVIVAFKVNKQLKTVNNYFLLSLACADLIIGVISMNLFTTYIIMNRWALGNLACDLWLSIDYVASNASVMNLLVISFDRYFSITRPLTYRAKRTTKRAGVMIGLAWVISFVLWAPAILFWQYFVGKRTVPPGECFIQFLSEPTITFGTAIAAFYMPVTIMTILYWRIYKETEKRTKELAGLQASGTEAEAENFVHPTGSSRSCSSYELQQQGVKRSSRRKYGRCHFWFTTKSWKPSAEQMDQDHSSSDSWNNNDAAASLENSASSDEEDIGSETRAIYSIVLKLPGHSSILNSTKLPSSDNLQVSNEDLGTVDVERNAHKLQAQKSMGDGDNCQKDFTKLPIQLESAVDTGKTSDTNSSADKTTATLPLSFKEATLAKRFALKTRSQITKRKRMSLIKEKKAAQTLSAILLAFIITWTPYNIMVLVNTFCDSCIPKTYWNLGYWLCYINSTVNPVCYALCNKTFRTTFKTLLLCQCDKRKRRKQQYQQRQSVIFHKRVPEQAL

One may read the Ki as the equilibrium dissociation constant of an inhibitor or competing ligand from its target. Take `COc1ccccc1CNCCCCCCNCCCCCCCCNCCCCCCNCc1ccccc1OC` [METHOCTRAMINE]: the Ki was 1400 nM and 1700 nM.
As to `CN(CCCCCCCCN(C)CCCCCCN(CC(=O)N1c2ccccc2C(=O)Nc2cccnc21)CC(=O)N1c2ccccc2C(=O)Nc2cccnc21)CCCCCCNCC(=O)N1c2ccccc2C(=O)Nc2cccnc21` [NSC_132947], the Ki is 220 nM and 180 nM.
